Broadly, the melting point is the temperature of the solid-liquid transition. The solubility is how much of the substance goes into solution per volume.

In brackets after ≈: the same amount, converted by molar mass. Read-outs that look alike come from different tables or passages of the source.

Experimental findings from patent publication US6696482B2, “Formulations for hydrophobic pharmaceutical agents” (Sugen, Inc., priority 1997, dated 2004) are described below.

A short description of series [1]: Solubility of the indolinone-based compound in water and excipients. In kind it is physicochemical. On the procedure:
An increase in the indolinone-based compound's aqueous solubility in hydrotropic solute solutions like nicotinamide and pyridoxine hydrochloride was observed. It is soluble (15-20 mg/mL) in polar excipients like polyethylene glycols of 300 and 400 MW.
(§1) The indolinone-based compound is a planar aromatic compound and is non-ionizable in the pharmaceutically acceptable range.

A short description of series [2]: Log of ratio of octanol to water solubility (individually determined). In kind it is physicochemical. Conditions: solubilities individually determined.
Source text: as §1

For series [3], the system named is VEGF-induced endothelial cell growth. In words: Inhibition of VEGF-induced endothelial cell growth. In kind it is cell-based. Conditions: in words. On the procedure:
Indolinone-based compounds of the invention have been tested for their ability to activate or inhibit protein kinases in biological assays. The methods used to measure indolinone-based compound modulation of protein kinase function are described in U.S. application Ser. No. 08/702,282, filed Aug. 23, 1996, incorporated herein by reference in its entirety, a including any drawings. In particular, indolinone-based compounds of the invention were tested for their ability to inhibit the FLK protein kinase.

The compound `CN(C)CCCOc1cccc2nc(N)nc(N)c12` [Procedure B 9, 2,4-Diamino-5-(3-dimethylaminopropoxy)quinazoline] registered a melting point of 193 to 195 °C.

Consider `CN(C)c1cccc(Oc2cccc3nc(N)nc(N)c23)c1` [Procedure B 3, 2,4-Diamino-5-(3-dimethylaminophenoxy)quinazoline], for which the melting point is 224 to 225 °C (dec.).

Compound `Nc1nc(N)c2c(Oc3ccc(OCc4ccccc4)cc3)cccc2n1` [Procedure B 8, 2,4-Diamino-5-(4-benzyloxyphenoxy)quinazoline] gave a melting point of 175 to 177 °C.

`CC(C)(C)c1ccc(Oc2cccc3nc(N)nc(N)c23)cc1` [Procedure B 1, 2,4-Diamino-5-(4-tert-butylphenoxy)quinazoline] registered a melting point of 226 to 228 °C.

Regarding `CN(C)c1cccc(Oc2cccc3ncnc(N)c23)c1` [Procedure C 2, 4-Amino-5-(3-dimethylaminophenoxy)quinazoline], the melting point lay within 179 to 181 °C.

The compound `Nc1ncnc2cccc(Oc3cccnc3)c12` [Procedure C 3, 4-Amino-5-(3-pyridinoxy)quinazoline] returned a melting point of 245 to 247 °C.

For the compound `Nc1nc(N)c2c(Oc3cccc(Br)c3)cccc2n1` [Procedure B 5, 2,4-Diamino-5-(3-bromophenoxy)quinazoline], the melting point lay in the range of 292 to 295 °C.

Turning to `Nc1ncnc2cccc(Oc3ccc4c(c3)OCO4)c12` [Procedure C 5, 4-Amino-5-(3,4-methylenedioxyphenoxy) quinazoline], the melting point fell in the range of 201 to 203 °C.

In the case of `COc1ccc(Oc2cccc3ncnc(N)c23)cc1` [Procedure C 1, 4-Amino-5-(4-methoxyphenoxy)quinazoline], the melting point is 192 to 195 °C.

`COc1ccccc1Oc1cccc2nc(N)nc(N)c12` [Procedure B 6, 2,4-Diamino-5-(2-methoxyphenoxy)quinazoline]: the melting point is 208 to 209 °C (dec.).

In the case of `Cc1cc(C)c(C=C2C(=O)Nc3ccccc32)[nH]1` [3-[(2,4-dimethylpyrrol-5-yl)methylene]-2-indolinone], the “influence of pH of the aqueous media on aqueous solubility” value in series [1] is “did not influence”. Besides, the solubility in series [1] (aromatic solvents like benzyl alcohol, organic solvent or mixture, read-out: solubility in aromatic solvents) is 10 to 15 mg/mL (≈ 42 to 62.9 mM); in series [1] (polyethylene glycols of 300 and 400 MW, organic solvent or mixture, read-out: solubility in polar excipients), 15 to 20 mg/mL (≈ 62.9 to 83.9 mM); in series [1] (polyglycolized lipids like LABPASOL and GELUCIRE, oil or lipid, read-out: solubility in polyglycolized lipids), 25 to 30 mg/mL (≈ 105 to 126 mM); in series [1] (water, read-out: solubility in water), 1e-05 mg/mL (≈ 4.2e-05 mM). The “aqueous solubility in hydrotropic solute solutions” value in series [1] (hydrotropic solute solutions like nicotinamide and pyridoxine hydrochloride) is “increase”. Further, the “solubility in water, water miscible non-aqueous solvents, and oils” value in series [1] (in words) is listed as “low solubility”. Besides, the “log of ratio of octanol to water solubility” value in series [2] is 5.6. In addition, the “inhibition of VEGF-induced endothelial cell growth” value in series [3] is “specific and potent inhibitor”.

In turn, `Nc1nc(N)c2c(-n3cccc3)cccc2n1` [Procedure D 4, 2,4-Diamino-5-(pyrrol-1-yl)quinazoline] came in with a melting point of 248 to 250 °C.

In turn, `Nc1nc(N)c2c(Oc3ccccc3F)cccc2n1` [Procedure B 4, 2,4-Diamino-5-(2-fluorophenoxy)quinazoline] had a melting point of 301 to 303 °C.

Regarding `Nc1ncnc2cccc(Oc3ccc(F)cc3)c12` [Similar synthetic processes 1, 4-Amino-5-(4-fluorophenoxy)quinazoline], the melting point lay in the range of 188 to 190 °C.

`Nc1ncnc2cccc(Oc3ccc(OCc4ccccc4)cc3)c12` [Procedure C 4, 4-Amino-5-(4-benzyloxyphenoxy)quinazoline] had a melting point of 170 to 171 °C.

Regarding `COc1ccc(Oc2cccc3nc(N)nc(N)c23)cc1OC` [Procedure B 2, 2,4-Diamino-5-(3,4-dimethoxyphenoxy)quinazoline], the melting point lay within 301 to 302 °C.
